This passage reports inhibition results from patent US20240400577A1, “MODULATORS OF PROTEIN KINASES” (VIBLIOME THERAPEUTICS, LLC, priority 2021, published 2024).

What all share (experiment): Kinase panel enzymatic inhibition assay (Nanosyn)
What all share (type): biochemical
Common to all, as to settings: compound 5 μM; ATP at Km; 30-minute pre-incubation

One assay deals with T1, LYNa (Homo sapiens, UniProt P07948).
T1 construct: purchased Nanosyn (contract screening)
The procedure, abridged:
(§1)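 Single-point screen: compound 5 μM, ATP at Km per kinase, 30 min pre-incubation. Readout by mobility shift (Caliper LabChip), ADP detection or TR-fluorescence. Reported as % inhibition or IC50.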

A further assay concerns the target T2, FYN (Homo sapiens, UniProt P06241).
T2 construct: purchased Nanosyn (contract screening)
The gist of the method: as §1

Another assay deals with T3, CLK4 (Homo sapiens, UniProt Q9HAZ1).
T3 construct: purchased Nanosyn (contract screening)
T3 sequence (Q9HAZ1 whole entry): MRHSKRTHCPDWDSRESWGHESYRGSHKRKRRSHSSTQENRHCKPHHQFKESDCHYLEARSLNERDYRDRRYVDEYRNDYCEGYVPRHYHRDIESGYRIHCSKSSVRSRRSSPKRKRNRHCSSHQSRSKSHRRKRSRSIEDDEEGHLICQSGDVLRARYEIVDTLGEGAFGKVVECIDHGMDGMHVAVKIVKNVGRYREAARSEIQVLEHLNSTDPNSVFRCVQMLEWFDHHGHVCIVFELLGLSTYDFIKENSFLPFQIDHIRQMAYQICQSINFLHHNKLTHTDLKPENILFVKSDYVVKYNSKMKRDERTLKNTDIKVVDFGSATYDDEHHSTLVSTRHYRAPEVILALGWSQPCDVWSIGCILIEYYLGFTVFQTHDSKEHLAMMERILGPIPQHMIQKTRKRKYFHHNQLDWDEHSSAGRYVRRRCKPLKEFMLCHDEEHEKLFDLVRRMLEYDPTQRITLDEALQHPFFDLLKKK
The gist of the method:
as §1

For the next assay, the target named is T4, CSK (Homo sapiens, UniProt P41240).
T4 construct: purchased Nanosyn (contract screening)
T4 sequence (P41240 whole entry): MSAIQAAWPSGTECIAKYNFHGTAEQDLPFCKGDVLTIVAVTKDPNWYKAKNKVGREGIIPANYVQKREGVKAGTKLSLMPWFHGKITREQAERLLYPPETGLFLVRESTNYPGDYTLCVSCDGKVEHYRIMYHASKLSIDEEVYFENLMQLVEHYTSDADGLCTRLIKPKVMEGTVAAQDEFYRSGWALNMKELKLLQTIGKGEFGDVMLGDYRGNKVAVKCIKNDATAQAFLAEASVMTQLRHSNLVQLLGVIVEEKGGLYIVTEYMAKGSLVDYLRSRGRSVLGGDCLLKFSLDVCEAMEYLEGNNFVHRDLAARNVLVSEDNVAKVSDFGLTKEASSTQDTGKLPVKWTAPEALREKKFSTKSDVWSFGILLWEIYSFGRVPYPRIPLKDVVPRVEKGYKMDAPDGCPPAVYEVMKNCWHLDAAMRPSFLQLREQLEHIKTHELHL
The gist of the method:
as §1

The next assay deals with T5, ZAK (Homo sapiens, UniProt Q9NYL2).
T5 construct: Nanosyn (contract laboratory that ran the panel)
The procedure, abridged:
as §1

For another assay, the target named is T6, PKCb1 (Homo sapiens, UniProt P05771).
T6 construct: Nanosyn (contract laboratory that ran the panel)
The gist of the method:
as §1

The next assay addresses T7, SGK2 (Homo sapiens, UniProt Q9HBY8).
T7 construct: Nanosyn (contract laboratory that ran the panel)
T7 sequence (Q9HBY8 1-367): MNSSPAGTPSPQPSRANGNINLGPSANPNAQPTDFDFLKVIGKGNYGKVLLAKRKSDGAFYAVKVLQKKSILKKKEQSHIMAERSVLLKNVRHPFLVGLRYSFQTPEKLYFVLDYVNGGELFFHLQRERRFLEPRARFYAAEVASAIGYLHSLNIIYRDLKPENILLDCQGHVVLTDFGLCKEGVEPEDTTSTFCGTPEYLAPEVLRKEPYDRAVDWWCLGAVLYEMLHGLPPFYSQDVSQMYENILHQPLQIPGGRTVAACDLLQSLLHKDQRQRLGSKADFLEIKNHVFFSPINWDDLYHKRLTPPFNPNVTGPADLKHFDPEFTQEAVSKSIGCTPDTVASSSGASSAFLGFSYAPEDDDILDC
The procedure, abridged: as §1

In another assay the target is T8, COT1 (Homo sapiens, UniProt P41279).
T8 construct: purchased Nanosyn (contract screening)
T8 sequence (P41279 whole entry): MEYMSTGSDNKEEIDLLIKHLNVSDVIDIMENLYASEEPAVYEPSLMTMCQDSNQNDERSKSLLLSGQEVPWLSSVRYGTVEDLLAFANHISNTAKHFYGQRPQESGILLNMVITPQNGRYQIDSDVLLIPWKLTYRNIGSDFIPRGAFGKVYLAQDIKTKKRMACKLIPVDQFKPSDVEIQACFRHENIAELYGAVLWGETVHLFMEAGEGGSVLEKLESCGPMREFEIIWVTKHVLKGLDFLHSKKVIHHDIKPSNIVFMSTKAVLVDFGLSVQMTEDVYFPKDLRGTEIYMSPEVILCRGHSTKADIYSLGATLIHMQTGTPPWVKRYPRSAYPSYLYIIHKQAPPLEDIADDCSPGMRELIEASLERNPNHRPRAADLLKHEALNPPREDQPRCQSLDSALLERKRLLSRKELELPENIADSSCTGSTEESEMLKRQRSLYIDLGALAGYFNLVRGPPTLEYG
The gist of the method:
as §1

Another assay deals with T9, BLK (Homo sapiens, UniProt P51451).
T9 construct: purchased Nanosyn (contract screening)
The procedure, abridged: as §1

The next assay concerns the target T10, CSF1R (Homo sapiens, UniProt P07333).
T10 construct: purchased Nanosyn (contract screening)
The gist of the method:
as §1

The target of the next assay is T11, BRAF (Homo sapiens, UniProt P15056).
T11 construct: purchased Nanosyn (contract screening)
The procedure, abridged: as §1

Another assay concerns the target T12, BRK (Homo sapiens, UniProt Q13882).
T12 construct: purchased Nanosyn (contract screening)
The gist of the method:
as §1

A further assay deals with T13, SRC (Homo sapiens, UniProt P12931).
T13 construct: Nanosyn (contract laboratory that ran the panel)
The gist of the method:
as §1

Another assay deals with T14, HCK (Homo sapiens, UniProt P08631).
T14 construct: purchased Nanosyn (contract screening)
The procedure, abridged: as §1

The target of the next assay is T15, FGR (Homo sapiens, UniProt P09769).
T15 construct: purchased Nanosyn (contract screening)
The gist of the method:
as §1

Another assay deals with T16, KIT (Homo sapiens, UniProt P10721).
T16 construct: purchased Nanosyn (contract screening)
The procedure, abridged: as §1

Another assay concerns the target T17, SGK3 (Homo sapiens, UniProt Q96BR1).
T17 construct: Nanosyn (contract laboratory that ran the panel)
T17 sequence (Q96BR1 1-496): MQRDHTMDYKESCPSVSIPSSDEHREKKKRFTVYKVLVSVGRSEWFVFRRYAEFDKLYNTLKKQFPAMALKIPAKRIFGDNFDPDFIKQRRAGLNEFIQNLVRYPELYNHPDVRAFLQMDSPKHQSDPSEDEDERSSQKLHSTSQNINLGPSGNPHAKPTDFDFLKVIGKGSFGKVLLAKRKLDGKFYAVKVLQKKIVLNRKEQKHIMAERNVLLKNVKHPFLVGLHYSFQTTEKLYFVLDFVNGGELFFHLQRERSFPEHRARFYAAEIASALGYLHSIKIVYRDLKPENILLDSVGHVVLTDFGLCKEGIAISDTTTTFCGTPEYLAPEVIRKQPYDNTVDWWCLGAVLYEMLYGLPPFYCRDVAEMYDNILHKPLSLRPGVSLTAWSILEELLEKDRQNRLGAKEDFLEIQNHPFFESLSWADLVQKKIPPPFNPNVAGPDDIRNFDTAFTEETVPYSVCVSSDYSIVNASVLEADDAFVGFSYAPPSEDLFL
The procedure, abridged:
as §1

In another assay the target is T18, p38a (Homo sapiens, UniProt Q16539).
T18 construct: Nanosyn (contract laboratory that ran the panel)
The procedure, abridged: as §1

Another assay deals with T19, RET (Homo sapiens, UniProt P07949).
T19 construct: Nanosyn (contract laboratory that ran the panel)
The gist of the method:
as §1

The target of a further assay is T20, TNIK (Homo sapiens, UniProt Q9UKE5).
T20 construct: Nanosyn (contract laboratory that ran the panel)
T20 sequence (Q9UKE5 whole entry): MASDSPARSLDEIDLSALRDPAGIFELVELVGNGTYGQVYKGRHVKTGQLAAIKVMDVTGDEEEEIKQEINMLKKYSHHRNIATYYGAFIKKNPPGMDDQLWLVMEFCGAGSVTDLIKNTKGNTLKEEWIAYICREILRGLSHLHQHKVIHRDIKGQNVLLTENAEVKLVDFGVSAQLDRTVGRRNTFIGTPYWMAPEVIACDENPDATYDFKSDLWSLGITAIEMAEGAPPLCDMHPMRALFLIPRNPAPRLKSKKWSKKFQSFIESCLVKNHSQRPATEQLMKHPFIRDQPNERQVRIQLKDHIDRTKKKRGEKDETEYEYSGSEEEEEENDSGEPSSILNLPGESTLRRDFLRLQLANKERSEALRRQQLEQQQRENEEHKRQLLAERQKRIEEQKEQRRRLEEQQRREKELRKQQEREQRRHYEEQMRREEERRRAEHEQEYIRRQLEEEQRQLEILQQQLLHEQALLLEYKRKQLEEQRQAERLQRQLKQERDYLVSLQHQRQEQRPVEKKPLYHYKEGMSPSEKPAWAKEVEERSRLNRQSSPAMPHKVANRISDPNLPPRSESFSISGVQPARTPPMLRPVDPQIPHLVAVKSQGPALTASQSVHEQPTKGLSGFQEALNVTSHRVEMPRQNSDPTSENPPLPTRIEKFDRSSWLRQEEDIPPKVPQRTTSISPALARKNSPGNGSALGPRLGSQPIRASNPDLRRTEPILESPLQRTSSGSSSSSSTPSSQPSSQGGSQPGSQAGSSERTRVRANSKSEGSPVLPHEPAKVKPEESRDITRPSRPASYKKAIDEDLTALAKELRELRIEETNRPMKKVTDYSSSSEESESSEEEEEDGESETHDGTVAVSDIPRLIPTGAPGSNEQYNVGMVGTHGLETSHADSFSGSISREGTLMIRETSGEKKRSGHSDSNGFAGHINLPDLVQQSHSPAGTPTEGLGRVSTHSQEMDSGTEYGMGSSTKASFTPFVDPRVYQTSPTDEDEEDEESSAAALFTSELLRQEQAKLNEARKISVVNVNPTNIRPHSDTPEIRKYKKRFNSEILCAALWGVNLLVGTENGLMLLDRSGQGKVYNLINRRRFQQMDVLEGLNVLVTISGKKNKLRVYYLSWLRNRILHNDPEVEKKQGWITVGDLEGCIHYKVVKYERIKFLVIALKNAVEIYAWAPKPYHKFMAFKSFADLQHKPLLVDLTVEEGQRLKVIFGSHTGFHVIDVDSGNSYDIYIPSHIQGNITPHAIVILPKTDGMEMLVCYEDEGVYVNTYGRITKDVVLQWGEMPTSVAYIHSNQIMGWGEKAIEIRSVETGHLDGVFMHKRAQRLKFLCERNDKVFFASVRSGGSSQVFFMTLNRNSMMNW
The gist of the method:
as §1

The next assay has as its target T21, Abl1 (Homo sapiens, UniProt P00519).
T21 construct: purchased Nanosyn (contract screening)
The procedure, abridged:
as §1

The next assay has as its target T22, LCK (Homo sapiens, UniProt P06239).
T22 construct: purchased Nanosyn (contract screening)
The gist of the method: as §1

The next assay concerns the target T23, Abl2 (Homo sapiens, UniProt P42684).
T23 construct: purchased Nanosyn (contract screening)
The gist of the method:
as §1

T23 sequence (P42684 whole entry): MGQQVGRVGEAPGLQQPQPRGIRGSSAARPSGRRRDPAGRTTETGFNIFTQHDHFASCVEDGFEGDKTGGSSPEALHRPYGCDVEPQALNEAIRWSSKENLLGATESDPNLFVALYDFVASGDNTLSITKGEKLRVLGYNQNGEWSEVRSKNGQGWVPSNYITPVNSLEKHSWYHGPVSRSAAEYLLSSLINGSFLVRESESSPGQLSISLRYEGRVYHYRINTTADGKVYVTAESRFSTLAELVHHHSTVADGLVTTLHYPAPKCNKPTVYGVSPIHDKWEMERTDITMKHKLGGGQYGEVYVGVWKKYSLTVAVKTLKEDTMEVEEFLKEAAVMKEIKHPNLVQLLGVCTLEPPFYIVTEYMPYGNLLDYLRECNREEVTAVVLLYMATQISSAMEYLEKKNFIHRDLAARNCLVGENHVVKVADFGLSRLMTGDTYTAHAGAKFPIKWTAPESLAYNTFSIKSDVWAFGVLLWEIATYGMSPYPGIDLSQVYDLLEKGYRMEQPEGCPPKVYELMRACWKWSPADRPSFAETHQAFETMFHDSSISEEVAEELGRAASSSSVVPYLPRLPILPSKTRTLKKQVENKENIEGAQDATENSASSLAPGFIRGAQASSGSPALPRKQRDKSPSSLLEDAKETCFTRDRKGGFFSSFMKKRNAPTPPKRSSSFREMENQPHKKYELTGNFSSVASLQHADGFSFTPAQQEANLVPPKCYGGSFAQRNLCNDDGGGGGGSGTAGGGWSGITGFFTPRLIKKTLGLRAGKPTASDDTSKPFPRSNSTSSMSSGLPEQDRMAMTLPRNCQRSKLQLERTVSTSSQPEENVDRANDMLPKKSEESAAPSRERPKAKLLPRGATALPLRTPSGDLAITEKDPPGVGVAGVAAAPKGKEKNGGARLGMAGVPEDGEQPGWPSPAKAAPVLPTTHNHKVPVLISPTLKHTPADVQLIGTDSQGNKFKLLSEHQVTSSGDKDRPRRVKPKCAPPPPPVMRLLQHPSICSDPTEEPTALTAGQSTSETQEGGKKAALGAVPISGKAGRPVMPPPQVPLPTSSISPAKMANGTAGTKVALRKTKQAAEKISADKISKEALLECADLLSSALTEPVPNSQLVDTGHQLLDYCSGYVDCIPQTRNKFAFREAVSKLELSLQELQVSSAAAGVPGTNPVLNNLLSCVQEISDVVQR
T21 sequence (P00519 whole entry): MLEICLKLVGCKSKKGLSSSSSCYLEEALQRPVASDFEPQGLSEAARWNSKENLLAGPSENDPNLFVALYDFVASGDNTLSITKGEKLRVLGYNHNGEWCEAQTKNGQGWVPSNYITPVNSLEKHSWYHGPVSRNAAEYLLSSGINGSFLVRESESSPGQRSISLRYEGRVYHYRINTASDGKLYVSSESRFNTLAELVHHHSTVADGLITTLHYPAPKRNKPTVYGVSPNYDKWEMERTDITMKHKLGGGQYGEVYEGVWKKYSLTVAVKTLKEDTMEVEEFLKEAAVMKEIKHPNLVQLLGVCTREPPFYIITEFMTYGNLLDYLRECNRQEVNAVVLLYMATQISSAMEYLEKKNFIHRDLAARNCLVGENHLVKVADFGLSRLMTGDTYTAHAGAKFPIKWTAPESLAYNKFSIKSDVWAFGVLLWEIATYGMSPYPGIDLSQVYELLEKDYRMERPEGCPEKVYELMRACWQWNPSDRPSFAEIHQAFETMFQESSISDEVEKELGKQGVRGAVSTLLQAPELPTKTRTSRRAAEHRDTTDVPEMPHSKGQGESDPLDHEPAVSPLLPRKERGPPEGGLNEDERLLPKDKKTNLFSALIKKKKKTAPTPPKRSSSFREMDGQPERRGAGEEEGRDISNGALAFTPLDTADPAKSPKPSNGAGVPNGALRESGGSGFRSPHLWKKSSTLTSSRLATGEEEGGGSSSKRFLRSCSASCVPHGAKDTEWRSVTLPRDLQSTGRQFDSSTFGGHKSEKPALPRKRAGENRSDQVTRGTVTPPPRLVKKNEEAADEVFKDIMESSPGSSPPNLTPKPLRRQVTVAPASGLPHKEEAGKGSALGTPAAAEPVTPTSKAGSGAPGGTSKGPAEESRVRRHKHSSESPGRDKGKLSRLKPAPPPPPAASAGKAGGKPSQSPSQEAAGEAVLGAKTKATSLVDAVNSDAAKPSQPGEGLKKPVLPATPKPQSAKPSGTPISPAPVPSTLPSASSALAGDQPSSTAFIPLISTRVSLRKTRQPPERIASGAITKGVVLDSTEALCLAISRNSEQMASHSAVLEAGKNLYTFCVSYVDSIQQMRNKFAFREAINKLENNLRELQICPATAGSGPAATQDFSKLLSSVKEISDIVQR

For orientation: inhibition means the percentage by which the read-out fell short of the control. Low readings indicate little suppression, high ones strong suppression. On to `Cc1ccc(NC(=O)c2cc([S+](C)[O-])n(-c3ccc(F)cc3)n2)cc1-c1cc(N2CCOCC2)c(=O)n(C)c1` (stereo not shown) [Ex11, 1-(4-fluorophenyl)-N-(4-methyl-3-(1-methyl-5-morpholino-6-oxo-1,6-dihydropyridin-3-yl)phenyl)-5-(methylsulfinyl)-1H-pyrazole-3-carboxamide], for which the inhibition at 5 µM on LYNa, against FYN, against CLK4, at CSK, at ZAK and against PKCb1 was less than 79% each time. Moreover, the inhibition at 5 µM against SGK2 is less than 79%; against COT1, less than 79%; against BLK, less than 79%; at CSF1R it was less than 79%; against BRAF, no less than 95%; against BRK it was less than 79%. For the same compound, the inhibition at 5 µM at SRC is less than 79%; against HCK, less than 79%; on FGR it was less than 79%; against KIT, less than 79%; against SGK3, less than 79%; against p38a, no less than 95%. Also, the inhibition at 5 µM on RET, against TNIK, on Abl1, at LCK and on Abl2 was less than 79% each time.

Take `CCOC(=O)Nc1cn2nc(Nc3cc(NC(=O)c4cc(S(C)(=O)=O)n(-c5ccc(F)cc5)n4)ccc3C)ccc2n1` [Ex15, ethyl (6-((5-(1-(4-fluorophenyl)-5-(methylsulfonyl)-1H-pyrazole-3-carboxamido)-2-methylphenyl)amino)imidazo[1,2-b]pyridazin-2-yl)carbamate]: the inhibition at 5 µM against LYNa is no less than 95%; against FYN it was no less than 95%; on CLK4, less than 79%; at CSK, 80 to 89%; on ZAK, less than 79%; on PKCb1, less than 79%. Besides, the inhibition at 5 µM is less than 79% against SGK2; less than 79% at COT1; less than 79% against BLK; no less than 95% on CSF1R; no less than 95% at BRAF; less than 79% at BRK. The inhibition at 5 µM against SRC is 90 to 94%; at HCK, 80 to 89%; against FGR, 80 to 89%; on KIT, no less than 95%; on SGK3 it was less than 79%; against p38a, no less than 95%. Also, the inhibition at 5 µM against RET is no less than 95%; against TNIK it was less than 79%; on Abl1, no less than 95%; on LCK, no less than 95%; at Abl2, no less than 95%.

As for `Cc1ccc(NC(=O)c2cc(S(C)(=O)=O)n(-c3ccc(F)cc3)n2)cc1-c1cc(N2CCOCC2)c(=O)n(C)c1` [Ex12, 1-(4-fluorophenyl)-N-(4-methyl-3-(1-methyl-5-morpholino-6-oxo-1,6-dihydropyridin-3-yl)phenyl)-5-(methylsulfonyl)-1H-pyrazole-3-carboxamide], the inhibition at 5 µM against LYNa, at FYN, against CLK4, at CSK, at ZAK and at PKCb1 was less than 79% each time. For the same compound, the inhibition at 5 µM is less than 79% on SGK2; less than 79% against COT1; less than 79% against BLK; less than 79% against CSF1R; no less than 95% against BRAF; less than 79% against BRK. Also, the inhibition at 5 µM at SRC, at HCK, at FGR, against KIT, at SGK3 and against p38a was less than 79% each time. In addition, the inhibition at 5 µM at RET, at TNIK, at Abl1, against LCK and on Abl2 was less than 79% each time.

Consider `CNC(=O)c1cc(Oc2ccc(NC(=O)c3cc(S(C)(=O)=O)n(-c4ccc(F)cc4)n3)c(F)c2)ccn1` [Ex17, 4-(3-fluoro-4-(1-(4-fluorophenyl)-5-(methylsulfonyl)-1H-pyrazole-3-carboxamido)phenoxy)-N-methylpicolinamide], for which the inhibition at 5 µM on LYNa, on FYN, against CLK4, on CSK, against ZAK and against PKCb1 was less than 79% throughout. Further, the inhibition at 5 µM on SGK2 is less than 79%; against COT1, less than 79%; against BLK, less than 79%; on CSF1R it was less than 79%; against BRAF, less than 79%; on BRK, no less than 95%. Further, the inhibition at 5 µM at SRC, against HCK, against FGR, on KIT, on SGK3 and against p38a was less than 79% throughout. Moreover, the inhibition at 5 µM against RET, on TNIK, at Abl1, against LCK and against Abl2 was less than 79% each time.

`CSc1cc(C(=O)Nc2cc(Oc3ccnc(C(=O)NC4CNC4)c3)ccc2F)nn1-c1ccc(F)cc1` [Ex8, N-(azetidin-3-yl)-4-(4-fluoro-3-(1-(4-fluorophenyl)-5-(methylthio)-1H-pyrazole-3-carboxamido)phenoxy)picolinamide]: the inhibition at 5 µM at LYNa is less than 79%; against FYN, less than 79%; against CLK4 it was 80 to 89%; at CSK, less than 79%; against ZAK it was less than 79%; at PKCb1 it was 80 to 89%. Also, the inhibition at 5 µM against SGK2 is less than 79%; on COT1, 90 to 94%; against BLK, less than 79%; against CSF1R, less than 79%; against BRAF it was 90 to 94%; on BRK it was less than 79%. For the same compound, the inhibition at 5 µM against SRC was less than 79%; against HCK, less than 79%; on FGR it was less than 79%; at KIT, less than 79%; against SGK3, 80 to 89%; on p38a, less than 79%. Also, the inhibition at 5 µM was less than 79% against RET; 90 to 94% on TNIK; less than 79% against Abl1; less than 79% at LCK; less than 79% on Abl2.
